How the values were obtained:
[1] = tested on: Salmonella enterica Serovar typhimurium LT2; settings: liquid culture, static growth, 37° C., 20 hours, 96 well microtiter plates
Method: (§1) Salmonella enterica Serovar typhimurium LT2, Staphylococcus aureus USA300 LAC, and Streptococcus mutans Clark (ATCC) were used for the experiment. […] S. enterica and S. aureus were cultured in Muller Hinton media (Sigma-Aldrich) and S. mutans was cultured in Reinforced Clostridial Media (Oxoid).
(§2) Single bacterial colonies were inoculated into 2 mL of medium in 10 mL capacity culture tubes. Inoculated cultures of S. aureus and S. enterica were grown aerobically at 37° C. with shaking at 200 rpm for 24 hours. S. mutans was cultured statically for 48 hours. […] MICs were determined in cultures grown in 96 well microtiter plates. 100 μL of the standardized culture was sub-cultured into wells containing 100 μL of medium containing antimicrobial compound. Control wells containing 200 μL of media only or media compound were used to standardize the data. The microtiter plates were aerobically incubated statically at 37° C. for 20 hours. Culture optical densities (A600) were determined using Biotek® EPOCH 2 microplate reader.
(§3) The ability of Zn and (CP)2ZnCl4 to inhibit the growth of bacterial pathogens was examined. The minimal inhibitory concentrations of Zn and (CP)2ZnCl4 were determined in liquid culture after static growth.

[2] = tested on: Staphylococcus aureus USA300 LAC; settings: liquid culture, static growth, 37° C., 20 hours, 96 well microtiter plates
Method: as §1, §2, §3

[3] = tested on: Streptococcus mutans Clark (ATCC); settings: for minimal inhibitory concentration S. mutans: liquid culture, static growth, 37° C., 20 hours, 96 well microtiter plates
Method: as §1, §2, §3

| Compound | minimal inhibitory concentration S. enterica [1] | minimal inhibitory concentration S. aureus [2] | minimal inhibitory concentration S. mutans [3] | antibacterial activity against S. mutans, compared to CPC ([3]; result in words, comparison with CPC) | MIC for Streptococcus mutans compared with zinc chloride or CPC ([3]; result in words, comparison with zinc chloride or CPC) |
| --- | --- | --- | --- | --- | --- |
| CCCCCCCCCCCCCCCC[n+]1ccccc1.CCCCCCCCCCCCCCCC[n+]1ccccc1.[Cl][Zn-2]([Cl])([Cl])[Cl] [(CP)2ZnCl4, cetylpyridinium tetrachlorozincate] | 60 µg/mL | 6 µg/mL | 6 µg/mL | slight improvement | lower than that of zinc chloride or CPC |
| [Cl-].[Cl-].[Zn+2] [ZnCl2, zinc chloride, reference compound] | ~300 µg/mL |  | ~65 µg/mL |  |  |

From patent US20210275581A1 (priority 2020, published 2021)
